Measurements: PMC10687119, “Quaternary Ammonium Salts of Cationic Lipopeptides with Lysine Residues — Synthesis, Antimicrobial, Hemolytic and Cytotoxic Activities” (Probiotics and Antimicrobial Proteins, 2023)
Values after ≈ are worked out from the molar mass of the structure shown. Where a SMILES comes first, the peptide text is derived from it. [ ]: non-standard residue; d: D form. The star is where a group is joined. Lys(Me3) = C[N+](C)(C)CCCC[C@H](N)C(=O)O; Stearoyl = CCCCCCCCCCCCCCCCCC(=O)*; Palmitoyl = CCCCCCCCCCCCCCCC(=O)*; Myristoyl = CCCCCCCCCCCCCC(=O)*

How the values were obtained:
[1] = tested on: human red blood cells (RBCs); type: cell-based; conditions: red cells of human
Method: The hemolysis assay was conducted using a procedure described previously. For this purpose, human red blood cells (RBCs) isolated from K2EDTA Single Donor Human Whole blood (Innovative Research, Inc, MI, USA) were rinsed with Phosphate-buffer saline (PBS, pH 7.4±0.05, composition - KCl 2.7 mM, NaCl 140 mM, phosphate 10mM; AppliChem GmbH, Germany) by centrifugation for 10 min at 800 × g. This process was repeated 3 times and the RBCs were resuspended in PBS. Then, the stock solution of RBCs was added to the serial dilution of lipopeptides on 96-well polystyrene plates to reach a final volume of 100 μL with a 4% concentration of erythrocytes (v/v) and a concentration range of 1-512 μg/mL of tested compounds. The control wells for 0% and 100% hemolysis consisted of RBCs suspended in PBS and 1% of Triton X-100 (Sigma-Aldrich, Germany), respectively. Benzalkonium chloride (Sigma-Aldrich, Germany) was used as reference compound. Subsequently, the plates were incubated for 60 min at 37 °C and then centrifuged at 800 × g for 10 min at 4 °C (Sorvall ST […] Centrifuge, Thermo Scientific). The supernatant was carefully […] to new microtiter plates. The release of hemoglobin was monitored absorbance measurements at 540 nm (MultiskanTM GO Microplate Spectrophotometer, Thermo Scientific). All experiments were conducted in triplicate. HC50 was calculated using an ic50.tk tool.

C. glabrata ATCC 15126 = type: cell-based, Candida glabrata; conditions: ATCC 15126, 24 h
Method: (§1) The Acinetobacter baumannii ATCC BAA-1605, Enterococcus faecium ATCC 700221, Klebsiella aerogenes ATCC 13048, Klebsiella pneumoniae ATCC 700603, Pseudomonas aeruginosa ATCC 9027, Staphylococcus aureus ATCC 33591, Candida glabrata ATCC 15126 strains were acquired from the American Type Culture Collection (ATCC, Manassas, USA). All the strains were stored at −80 °C in Roti-Store cryo vials (Carl Roth GmbH, Germany) and before the tests were transferred into fresh Mueller–Hinton broth (MHB, Becton Dickinson, Poland) for bacteria or RPMI-1640 (Sigma-Aldrich, Germany) for fungi and incubated for 24 h at 37 °C. Then, the cultures were cultured on the Mueller–Hinton agar (BioMaxima, Poland) or Sabouraud dextrose agar (SDA, BioMaxima) plates, respectively, and incubated as just mentioned. For microbiological assays, a minimum of three to five well-isolated colonies of the same morphological type were carefully picked from the agar cultures. These colonies were transferred with sterile loop into fresh microbiological medium and incubated with shaking (100 rpm) at 37 °C until they reached logarithmic phase of growth. Cell densities for all assays were adjusted through spectrophotometric measurements (Multiskan GO Microplate Spectrophotometer, Thermo Fisher Scientific, Finland) at 600 and 530 nm for bacteria and fungi, respectively.
(§2) The MICs were determined by broth microdilution method according to the Clinical and Laboratory Standard Institute guidelines. For this purpose, initial inoculums of bacteria (5 × 10^5 CFU/mL) in MHB and yeasts (2 × 10^3 CFU/mL) in RPMI-1640 with 2% D-glucose were exposed to the ranging concentration of lipopeptides (1–512 μg/mL) and incubated at 37 °C for 18 h and 24 h, respectively. The experiments were conducted on 96-well microtiter polystyrene plates (Kartell, Italy). The growth was assessed visually after incubation and the MIC was assumed as the lowest peptide concentration at which a noticeable growth of microorganisms was inhibited. Benzalkonium chloride (Sigma-Aldrich, Germany) was used as reference compound. All experiments were conducted in triplicate.

[2] = tested on: human keratinocyte cell line (HaCaT); type: cell-based; conditions: 24 h
Method: The immortalized human keratinocyte cell line (HaCaT), obtained from CLS (Cell Line Service, Germany) was cultured in DMEM-high glucose (Dulbecco’s Modified Eagle Medium) supplemented with 10% fetal bovine serum, 2 mM L-glutamine, 100 U/mL penicillin and 100 μg/mL streptomycin (Sigma-Aldrich; Merck KGaA) at 37 °C in a humidified atmosphere with 5% CO2. Cells were trypsinized, and the medium was renewed 2–3 times per week. The cytotoxicity of compounds was assessed by colorimetric CellTilter 96® Aqueous One Solution Cell Proliferation Assay (Promega, USA), containing a tetrazolium compound according to the manufacturer’s instructions. In brief, 7 × 10^3 HaCaT cells per well were plated on 96-well plates and incubated per night to adhere to the cultured dishes. After that time, different concentrations of the tested compounds ranging from 512 to 1 μg/mL were applied to the wells. Every compound was medium-soluble at 37 °C; thus, the non-treated cells were negative control. Serial dilutions of the tested compounds were always prepared before use. Cells were incubated with drugs for 24 h, and then, 20 μL of the CellTiter 96®AqueousOne Solution Reagent was added to each well containing treated cells in 100 µl of culture medium. After 4 h of incubation at 37 °C, the absorbance at 490 nm was recorded using a microplate reader (Epoch, BioTek Instruments, USA). The quantity of formazan product as measured by the amount of 490 nm absorbance is directly proportional to the number of living cells in culture. Benzalkonium chloride (Sigma-Aldrich, Germany) was used as reference compound. At least three independent experiments with two replicates were conducted for each concentration of a compound, and the IC50 values were calculated using GraphPad Prism 8 software.

S. aureus ATCC 33591 = type: cell-based, Staphylococcus aureus; conditions: ATCC 33591, 18 h
Method: as §1, §2

K. aerogenes ATCC 13048 = type: cell-based, Klebsiella aerogenes; conditions: ATCC 13048, 18 h
Method: as §1, §2

P. aeruginosa ATCC 9027 = type: cell-based, Pseudomonas aeruginosa; conditions: ATCC 9027, 18 h
Method: as §1, §2

[3] = tested on: A. baumannii ATCC BAA 1605; type: cell-based, Acinetobacter baumannii; conditions: ATCC BAA 1605, 18 h
Method: as §1, §2

[4] = tested on: K. pneumoniae ATCC 700603; type: cell-based, Klebsiella pneumoniae; conditions: ATCC 700603, 18 h
Method: as §1, §2

E. faecium ATCC 700221 = type: cell-based, Enterococcus faecium; conditions: ATCC 700221, 18 h
Method: as §1, §2

SMILES	HC50 [1]	MIC (C. glabrata ATCC 15126)	IC50 [2]	MIC (S. aureus ATCC 33591)	MIC (K. aerogenes ATCC 13048)	MIC (P. aeruginosa ATCC 9027)	MIC [3]	MIC [4]	MIC (E. faecium ATCC 700221)
CCCCCCCCCCCCCC(=O)N[C@@H](CCCC[N+](C)(C)C)C(=O)N[C@@H](CCCC[N+](C)(C)C)C(N)=O [Peptide 2Mq, C14-K(Me3)^+K(Me3)^+-NH2]	>512 µg/mL	512 µg/mL	258.90 ± 35.07 µg/mL	128 µg/mL	>512 µg/mL	>512 µg/mL	>512 µg/mL	>512 µg/mL	128 µg/mL
CCCCCCCCCCCCCCCC(=O)N[C@@H](CCCC[N+](C)(C)C)C(=O)N[C@@H](CCCC[N+](C)(C)C)C(N)=O [Peptide 2Pq, C16-K(Me3)^+K(Me3)^+-NH2]	133.32 ± 6.27 µg/mL	64 µg/mL	99.62 ± 9.65 µg/mL	16 µg/mL	512 µg/mL	512 µg/mL	128 µg/mL	512 µg/mL	16 µg/mL
CCCCCCCCCCCCCCCCCC(=O)N[C@@H](CCCC[N+](C)(C)C)C(=O)N[C@@H](CCCC[N+](C)(C)C)C(N)=O [Peptide 2Sq, C18-K(Me3)^+K(Me3)^+-NH2]	22.42 ± 0.98 µg/mL	16 µg/mL	78.57 ± 5.49 µg/mL	8 µg/mL	64 µg/mL	>512 µg/mL	64 µg/mL	128 µg/mL	16 µg/mL
CCCCCCCCCCCCCC(=O)N[C@@H](CCCCN)C(=O)N[C@@H](CCCCN)C(=O)N[C@@H](CCCCN)C(N)=O [Peptide 3M, C14-KKK-NH2]	>512 µg/mL	512 µg/mL (≈ 837 µM)	237.60 ± 31.18 µg/mL (≈ 388 µM)	64 µg/mL (≈ 105 µM)	256 µg/mL (≈ 418 µM)	128 µg/mL (≈ 209 µM)	512 µg/mL (≈ 837 µM)	>512 µg/mL	32 µg/mL (≈ 52.3 µM)
CCCCCCCCCCCCCC(=O)N[C@@H](CCCC[N+](C)(C)C)C(=O)N[C@@H](CCCC[N+](C)(C)C)C(=O)N[C@@H](CCCC[N+](C)(C)C)C(N)=O [Peptide 3Mq, C14-K(Me3)^+K(Me3)^+K(Me3)^+-NH2]	>512 µg/mL	>512 µg/mL	>512 µg/mL	>512 µg/mL	>512 µg/mL	>512 µg/mL	>512 µg/mL	>512 µg/mL	256 µg/mL
CCCCCCCCCCCCCCCC(=O)N[C@@H](CCCC[N+](C)(C)C)C(=O)N[C@@H](CCCC[N+](C)(C)C)C(=O)N[C@@H](CCCC[N+](C)(C)C)C(N)=O [Peptide 3Pq, C16-K(Me3)^+K(Me3)^+K(Me3)^+-NH2]	>512 µg/mL	>512 µg/mL	>512 µg/mL	256 µg/mL	512 µg/mL	>512 µg/mL	>512 µg/mL	>512 µg/mL	32 µg/mL
CCCCCCCCCCCCCCCCCC(=O)N[C@@H](CCCC[N+](C)(C)C)C(=O)N[C@@H](CCCC[N+](C)(C)C)C(=O)N[C@@H](CCCC[N+](C)(C)C)C(N)=O [Peptide 3Sq, C18-K(Me3)^+K(Me3)^+K(Me3)^+-NH2]	385.50 ± 71.51 µg/mL	128 µg/mL	474.64 ± 29.06 µg/mL	64 µg/mL	64 µg/mL	512 µg/mL	128 µg/mL	256 µg/mL	16 µg/mL
CCCCCCCCCCCCCC(=O)N[C@@H](CCCCN)C(=O)N[C@@H](CCCCN)C(=O)N[C@@H](CCCCN)C(=O)N[C@@H](CCCCN)C(N)=O [Peptide 4M, C14-KKKK-NH2] (Myristoyl-KKKK-NH2)	>512 µg/mL	512 µg/mL (≈ 692 µM)	252.20 ± 36.68 µg/mL (≈ 341 µM)	32 µg/mL (≈ 43.2 µM)	256 µg/mL (≈ 346 µM)	256 µg/mL (≈ 346 µM)	512 µg/mL (≈ 692 µM)	>512 µg/mL	16 µg/mL (≈ 21.6 µM)
CCCCCCCCCCCCCC(=O)N[C@@H](CCCC[N+](C)(C)C)C(=O)N[C@@H](CCCC[N+](C)(C)C)C(=O)N[C@@H](CCCC[N+](C)(C)C)C(=O)N[C@@H](CCCC[N+](C)(C)C)C(N)=O [Peptide 4Mq, C14-K(Me3)^+K(Me3)^+K(Me3)^+K(Me3)^+-NH2] (Myristoyl-[Lys(Me3)][Lys(Me3)][Lys(Me3)][Lys(Me3)]-NH2)	>512 µg/mL	>512 µg/mL	>512 µg/mL	>512 µg/mL	>512 µg/mL	>512 µg/mL	>512 µg/mL	>512 µg/mL	128 µg/mL
CCCCCCCCCCCCCCCC(=O)N[C@@H](CCCC[N+](C)(C)C)C(=O)N[C@@H](CCCC[N+](C)(C)C)C(=O)N[C@@H](CCCC[N+](C)(C)C)C(=O)N[C@@H](CCCC[N+](C)(C)C)C(N)=O [Peptide 4Pq, C16-K(Me3)^+K(Me3)^+K(Me3)^+K(Me3)^+-NH2] (Palmitoyl-[Lys(Me3)][Lys(Me3)][Lys(Me3)][Lys(Me3)]-NH2)	>512 µg/mL	>512 µg/mL	>512 µg/mL	512 µg/mL	512 µg/mL	>512 µg/mL	>512 µg/mL	>512 µg/mL	32 µg/mL
CCCCCCCCCCCCCCCCCC(=O)N[C@@H](CCCC[N+](C)(C)C)C(=O)N[C@@H](CCCC[N+](C)(C)C)C(=O)N[C@@H](CCCC[N+](C)(C)C)C(=O)N[C@@H](CCCC[N+](C)(C)C)C(N)=O [Peptide 4Sq, C18-K(Me3)^+K(Me3)^+K(Me3)^+K(Me3)^+-NH2] (Stearoyl-[Lys(Me3)][Lys(Me3)][Lys(Me3)][Lys(Me3)]-NH2)	>512 µg/mL	512 µg/mL	>512 µg/mL	64 µg/mL	64 µg/mL	512 µg/mL	256 µg/mL	256 µg/mL	16 µg/mL
